Experimental data taken from PubChem BioAssay (NCI).
“And” between values parts separate entries of the source, which are not always exact repeats. Equal values may be shown once.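 How tested: cells in 96-well plates exposed to compound for 48 hours at five concentrations. Here, GI50 denotes the concentration required for 50% inhibition of growth. TGI denotes the concentration required for complete inhibition of growth.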

Experiments:
Experiment in all cases: growth of human tumour cells (NCI), 48 h
HL-60(TB) leukemia = system: HL-60(TB) leukemia
SF-539 CNS = system: SF-539 CNS
CAKI-1 renal = system: CAKI-1 renal
OVCAR-8 ovarian = system: OVCAR-8 ovarian
UACC-62 melanoma = system: UACC-62 melanoma
NCI-H522 lung = system: NCI-H522 lung
HCC-2998 colon = system: HCC-2998 colon
MDA-MB-231 breast = system: MDA-MB-231 breast
NCI/ADR-RES ovarian = system: NCI/ADR-RES ovarian
MCF7 breast = system: MCF7 breast

| Structure (SMILES) | TGI (HL-60(TB) leukemia) [µM] | TGI (SF-539 CNS) [µM] | TGI (CAKI-1 renal) | TGI (OVCAR-8 ovarian) [µM] | TGI (UACC-62 melanoma) [µM] | TGI (NCI-H522 lung) [µM] | TGI (HCC-2998 colon) [µM] | GI50 (MDA-MB-231 breast) [µM] | TGI (MDA-MB-231 breast) [µM] | GI50 (HL-60(TB) leukemia) [µM] | GI50 (SF-539 CNS) [µM] | GI50 (CAKI-1 renal) [µM] | GI50 (NCI/ADR-RES ovarian) [µM] | TGI (NCI/ADR-RES ovarian) [µM] | GI50 (OVCAR-8 ovarian) [µM] | GI50 (UACC-62 melanoma) [µM] | GI50 (NCI-H522 lung) [µM] | GI50 (MCF7 breast) [µM] | TGI (MCF7 breast) [µM] | GI50 (HCC-2998 colon) [µM] |
| --- | --- | --- | --- | --- | --- | --- | --- | --- | --- | --- | --- | --- | --- | --- | --- | --- | --- | --- | --- | --- |
| COc1cc2c3cc1Oc1c(OC)c(OC)cc4c1[C@@H](Cc1ccc(O)c(c1)Oc1ccc(cc1)C[C@@H]3N(C)CC2)N(C)CC4 | 26.4 | 13.1 | 19.7 µM | 31.7 | 30.5 | 20.3 | 20.4 |  |  |  |  |  |  |  |  |  |  |  |  |  |
| O=C1C(Cl)=C(Nc2cc(Cl)ccc2O)C(=O)N1Cc1ccccc1 | 67.1 | 36.3 | 40.9 µM | 36.4 | 30.8 | 30.5 |  | 17.5 | 33.2 | 25.6 | 20 | 18.3 | 18.9 | 37.4 | 17.5 | 16.2 | 15.1 | 21 | 52.9 |  |
| Cc1cc(Cl)ccc1N=C1NC(=O)C(CC(=O)Nc2cccc(C)c2C)S1 (stereo not given) |  | 43.4 | 54.5 µM | 75.9 | 71.3 |  | 65.1 |  |  |  |  |  |  |  |  |  |  |  |  |  |
| C=C1C(=O)O[C@H]2[C@H]1CC/C(COC(=O)CCCCCCCC(=O)OC/C1=C/CC[C@@]3(C)O[C@H]3[C@H]3OC(=O)C(=C)[C@@H]3CC1)=C\CC[C@@]1(C)O[C@@H]21 | 4.87 | 3.83 |  | 8.44 | 6.51 | 3.92 | 3.88 | 1.98 | 4.61 | 1.04 | 1.83 |  | 3.35 | > 100 | 2.75 | 2.45 | 1.97 |  |  | 1.9 |
| Cn1c2c(c3ccccc3c1=O)C(=O)c1ccccc1-2 | > 100 | 59.1 | > 100 µM | > 100 | > 100 | > 100 |  |  | > 100 |  |  |  |  | > 100 |  |  |  |  | > 100 |  |
| CN(CCCN1C(=O)c2cccc3cc([N+](=O)[O-])cc(c23)C1=O)CCN(C)CCCN1C(=O)c2cccc3cc([N+](=O)[O-])cc(c23)C1=O | > 39.3 | > 39.3 | > 39.3 µM | > 39.3 | > 39.3 | > 39.3 | > 39.3 |  |  |  |  |  |  |  |  |  |  |  |  |  |
| COc1cc(C2c3cc4c(cc3[C@@H](Nc3ccc([N+](=O)[O-])cc3)C3COC(=O)[C@H]23)OCO4)cc(OC)c1O (stereo not given in full) |  | 3.79 | 0.941 µM and 5.06 µM | 11 | 8.31 | 5.42 | 7.01 |  |  | 0.0114 | 0.734 | 0.154 |  | > 93.6 | 0.981 | 0.547 | 0.733 |  | > 43.1 |  |
| CCOC(=O)C(=O)Nc1c(C)cccc1C(C)(C)C |  | > 100 | > 100 µM | > 100 | > 100 | > 100 | > 100 |  |  |  |  |  |  |  |  |  |  |  |  |  |
| C=C(C)C1CCC2=CC(CC3(C)OC3C3=CC(C(=O)OC)=C(C1)O3)OC2=O (stereo not given) |  | > 100 | > 100 µM | > 100 |  | > 100 |  |  | > 100 |  |  |  |  | > 100 |  |  |  |  | > 100 |  |
| C[C@@H](CS[As](C)C)C(=O)N1CCC[C@H]1C(=O)O |  | 1.41 | 0.409 µM |  | 0.855 | 0.199 |  | 0.226 | 1.35 | 0.0994 | 0.131 | 0.0977 | 0.224 | 0.581 | 0.299 | 0.207 | 0.0715 | 0.249 | 2.03 |  |
| CC(C)N1C(C)[C@@H](c2ccccc2)O[P@@]1(=O)CC1=CCCCC1 (stereo not given in full) | 63.7 | > 100 |  | > 100 | > 100 | > 100 | > 100 |  |  |  |  |  |  |  |  |  |  |  |  |  |
| O=[N+]([O-])c1cccc(S(=O)(=O)N/N=C/c2cc(I)cc([N+](=O)[O-])c2O)c1 | 47 | 48.5 | 50.9 µM | 63.2 | 45.2 | 35.9 | > 100 |  |  |  |  |  |  |  |  |  |  |  |  |  |
| CC(=O)c1ccc2c3c1[C@H]1O[C@H]1c1cccc(c1-3)[C@@H]1O[C@H]21 | 5.75 |  | 2.67 µM | 3.49 | 4.15 | 1.1 |  |  | 4.44 |  |  |  | 2.3 | 5.68 |  |  |  |  | > 33.5 |  |
| Nn1c(-c2cccc(Cl)c2)nc2ccccc2c1=O | > 100 | > 100 | > 100 µM | > 100 | > 100 | > 100 | > 100 |  |  |  |  |  |  |  |  |  |  |  |  |  |
| O=[N+]([O-])c1ccc(C2SCc3nc4ccccc4n32)cc1 (stereo not given) | > 100 | > 100 | > 100 µM | > 100 | > 100 |  |  |  |  |  |  |  |  |  |  |  |  |  |  |  |
| CC(=O)[CH-]C(=O)c1ccccc1.CC(=O)[CH-]C(=O)c1ccccc1.CC[C@H](/C=C/C(C)[C@H]1CCC2[C@@H]3CC=C4C[C@@H]([O-])CC[C@]4(C)C3CC[C@@]21C)C(C)C.CC[C@H](/C=C/C(C)[C@H]1CCC2[C@@H]3CC=C4C[C@@H]([O-])CC[C@]4(C)C3CC[C@@]21C)C(C)C.Cl.[Ti+4] (stereo not given in full) | 16.6 | > 25 | > 25 µM | > 25 | > 25 | > 25 | > 25 |  |  | 6.35 | > 25 | > 25 |  |  | > 25 | > 25 | > 25 |  |  | > 25 |
| CCC[CH2][Sn]([CH2]CCC)([O]C(=O)c1cc(F)ccc1F)[O]C(=O)c1cc(F)ccc1F | 3.09 | 2.81 | 2.27 µM | 2.65 | 2.65 | 0.23 | 2.76 |  |  | 0.506 | 1.4 | 1.06 |  |  | 1.34 | 1.36 | 0.108 |  |  | 1.43 |
| Cc1ccc(-c2c3c(nn2-c2ccc(S(=O)(=O)NC(=O)NC4CCCCC4)cc2)-c2ccccc2C3)cc1 | 21.4 | 21.9 | 41.8 µM | 70.7 | 32.2 | 28.9 |  | 21 | 43.2 | 5.17 | 9.48 | 18 | 16 | 54.5 | 26.2 | 16.9 | 12 | 5.88 | 37.3 |  |
| CCOC(=O)/C(C#N)=C\Sc1ccccc1 | 45.6 | 30.1 | 65.9 µM | 27.3 | 42.3 | 11.3 |  |  |  |  |  |  |  |  |  |  |  |  |  |  |
| O=C1C(Cl)=C(Cl)C(=O)N1c1ccc(F)cc1 | 11.5 | 51.9 | 21 µM | 45.1 | 31.7 | 5.95 | 48.1 |  | 33 |  |  |  |  |  |  |  |  |  | 42.9 |  |
